Reference: patent US5304474A, “Hydrophobic peptide esters and amides” (Board of Regents, The University of Texas System, priority 1991, dated 1994)
Entries after “also recorded” stand apart in the source; their conditions may differ. Peptide text beside a SMILES is read from it. * marks the point of attachment. βNA = c1ccc2cc(N*)ccc2c1

Assays:
[1] = test system: natural killer cells (NK); experiment: NK function: lysis of K562 target cells (51Cr release) after preincubation of lymphocytes with compound; conditions: for NK toxicity / effect on NK function, in words: lymphocytes exposed 15 minutes at room temperature (FIG. 4, FIG. 5); for NK Toxicity (LD50): concentration which results in 50% loss of human NK function, PBL 15 minutes at 22° C.; for effect of unesterified dipeptides on NK cell survival or lytic activity: up to 5×10^-3 M; for prevention of Leu-OMe ablation of NK activity / permanent effect on NK function: PBM; for prevention of Leu-OMe ablation of NK activity: 5 mM Leu-OMe with lysosomal inhibitor (FIG. 1); for permanent effect on NK function: agent alone, washed, 18 hours culture, E:T 40:1 (FIG. 1); for NK Function % Specific Cytotoxicity: Nil 50.8 (Table 2)
[2] = test system: [^3 H]Leu-Leu-OMe uptake by PBL (facilitated transport); experiment: Competitive inhibition of [3H]Leu-Leu-OMe uptake; type: cell-based, human; conditions: for inhibition at 250 µM: Homo sapiens, unlabeled compound 250 microM
Method: Human peripheral blood lymphocytes (PBL) were incubated in the presence of [^3 H]labeled Leu-Leu-OMe at 22° C. for varying lengths of time. The incubation mixture was then centrifuged through silicone oil to separate the cells from any unbound or non-internalized [^3 HLeu-Leu-OMe. […] At 37° C., levels of [^3 H]Leu-Leu-OMe accumulation by PBL were increased above those seen at 22° C. (see Table 4).

human erythrocytes (RBC) = experiment: 51Cr release from RBC incubated with peptide ester alone; type: cell-based; conditions: for ^51 Cr Release from RBC: Nil 410 + 12
Method: The following experiments were carried out to determine whether DPPI could generate a lytic product from Leu-Leu-OMe. In the experiment detailed in FIG. 12, ^51 Cr-labeled human erythrocytes (RBC) were incubated with varying concentrations of Leu-Leu-OMe alone or in the presence of purified bovine DPPI.

[3] = 250 micro-M, Nil 40.8 (Table 16)
[4] = [3H]Leu-Leu-OMe 10 microM (Table 6)
[5] = [3H]Leu-Leu-OMe 10 microM (Table 5)

COC(=O)[C@H](CC(C)C)NC(=O)[C@H](C)N [Ala-Leu-OMe] (H-Ala-Leu-OMe)
NK toxicity / effect on NK function, in words [1]: had no NK inhibitory effects

COC(=O)[C@H](Cc1ccccc1)NC(=O)CN [Gly-Phe-OMe] (H-Gly-Phe-OMe)
NK Function % Specific Lysis K562 [1, 3]: 34.5%
NK Function % Specific Lysis K562 ([1]; 500 micro-M, Nil 40.8 (Table 16)): 10.1%
NK toxicity / effect on NK function, in words [1]: a much less potent NK toxin than is Leu-Leu-OMe

COC(=O)[C@H](CC(C)C)NC(=O)[C@@H]1CCCN1 [Pro-Leu-OMe] (H-Pro-Leu-OMe)
competitive inhibition of [3H]Leu-Leu-OMe uptake, in words [2]: not competitively inhibited
inhibition at 250 µM [2, 4]: -18%
NK Toxicity (LD50) [1]: > 250 micro-M
NK toxicity / effect on NK function, in words [1]: exhibit no NK toxicity

CC(C)C[C@H](NC(=O)[C@@H](N)CC(C)C)C(=O)OCc1ccccc1 [Leu-Leu-OBenzyl, L-leucyl-L-leucyl benzyl ester]
competitive inhibition of [3H]Leu-Leu-OMe uptake, in words [2]: competitively inhibited
inhibition at 250 µM [2, 5]: 87%
potency relative to Leu-Leu-OMe in depleting human PBL of cytotoxic lymphocytes [1]: greater than twofold more potent than Leu-Leu-OMe
NK Function % Specific Lysis K562 ([1]; 6.25 micro-M during preincubation, Nil 66 (Table 14)): 62%
NK Function % Specific Lysis K562 ([1]; 12.50 micro-M, Nil 66 (Table 14)): < 1%
NK Function % Specific Lysis K562 ([1]; 25.00 micro-M, Nil 66 (Table 14)): 1%
NK toxicity / effect on NK function, in words [1]: ablates human NK activity

CC(C)[C@H](N)C(=O)N[C@@H](Cc1ccccc1)C(=O)O [Val-Phe, L-valyl L-phenylalanine, reference compound] (H-Val-Phe-OH)
effect of unesterified dipeptides on NK cell survival or lytic activity [1]: had no effect on NK cell survival or lytic activity

COC(=O)[C@H](Cc1ccc(O)cc1)NC(=O)[C@@H](N)CC(C)C [Leu-Tyr-OMe] (H-Leu-Tyr-OMe)
competitive inhibition of [3H]Leu-Leu-OMe uptake, in words [2]: excellent competitive inhibitors of [^3 H]Leu-Leu-OMe uptake
inhibition at 250 µM [2, 4]: 86%
NK Toxicity (LD50) [1]: > 250 micro-M
NK toxicity / effect on NK function, in words [1]: no observed NK inhibitory effects; also recorded: little or no toxicity for NK cells

COC(=O)[C@H](CC(C)C)NC(=O)[C@@H](N)C(C)C [Val-Leu-OMe] (H-Val-Leu-OMe)
NK toxicity / effect on NK function, in words [1]: produced concentration-dependent ablation of NK function at concentrations comparable to those at which Leu-Leu-OMe was active

COC(=O)[C@H](CCCNC(=N)N)NC(=O)[C@@H](N)CC(C)C [Leu-Arg-OMe]
NK toxicity / effect on NK function, in words [1]: no observed NK inhibitory effects

COC(=O)[C@@H](NC(=O)[C@@H](N)C(C)C)C(C)C [Val-Val-OMe] (H-Val-Val-OMe)
NK toxicity / effect on NK function, in words [1]: less active than either Leu-Val-OMe or Val-Leu-OMe

zinc [reference compound]
effect on Leu-Leu-OMe mediated NK toxicity ([1]; added with Leu-Leu-OMe): appeared to inhibit this Leu-Leu-OMe toxicity

Cl.N [NH4 Cl, reference compound]
prevention of Leu-OMe ablation of NK activity [1]: largely prevented
permanent effect on NK function [1]: neither chloroquine, NH4 Cl, nor Ile-OMe had any substantial permanent effect on NK function

COC(=O)[C@H](CC(C)C)NC(=O)[C@@H](N)CC(=O)O [Asp-Leu-OMe] (H-Asp-Leu-OMe)
competitive inhibition of [3H]Leu-Leu-OMe uptake, in words [2]: not competitively inhibited
NK toxicity / effect on NK function, in words [1]: exhibit no NK toxicity

CC(C)C[C@H](NC(=O)[C@@H](N)C(C)C)C(=O)O [Val-Leu, L-valyl L-leucine, reference compound] (H-Val-Leu-OH)
effect of unesterified dipeptides on NK cell survival or lytic activity [1]: had no effect on NK cell survival or lytic activity

COC(=O)[C@H](CC(C)C)NC(=O)[C@H](CC(C)C)NC(=O)[C@H](CC(C)C)NC(=O)[C@H](CC(C)C)NC(=O)[C@H](CC(C)C)NC(=O)[C@@H](N)CC(C)C [LLLLLLOMe] (H-LLLLLL-OMe)
^51 Cr Release from RBC (human erythrocytes (RBC); 20 micro-M): 698 + 137
^51 Cr Release from RBC (human erythrocytes (RBC); 100 micro-M): 6,129 + 400
^51 Cr Release from RBC (human erythrocytes (RBC); 500 micro-M): 3,531 + 101
damage to RBC by compound alone, in words (human erythrocytes (RBC); no DPPI): Disruption of erythrocyte membranes was observed

CC(C)C[C@H](NC(=O)[C@@H](N)CC(C)C)C(N)=O [Leu-Leu-NH2]
competitive inhibition of [3H]Leu-Leu-OMe uptake, in words [2]: do not competitively inhibit PBL uptake of L-Leu-L-Leu-OMe
inhibition at 250 µM [2, 5]: 8%
NK Function % Specific Lysis K562 ([1]; 1.00 micro-M, Nil 66 (Table 14)): 66%
NK Function % Specific Lysis K562 ([1]; 250.00 micro-M, Nil 66 (Table 14)): 71%
NK toxicity / effect on NK function, in words [1]: no discernible toxicity for NK Cells

COC(=O)[C@H](CC(C)C)NC(=O)CN [Gly-Leu-OMe]
NK toxicity / effect on NK function, in words [1]: greatly reduced NK toxicity

NCC(=O)N[C@@H](Cc1ccccc1)C(=O)Nc1ccc2ccccc2c1 [Gly-Phe-beta-naphthylamide, glycyl L-phenylalanyl beta napthylamide] (H-Gly-Phe-βNA)
competitive inhibition of [3H]Leu-Leu-OMe uptake, in words [2]: competitively inhibits [^3 H]Leu-Leu-OMe uptake by lymphocytes
NK Function % Specific Lysis K562 ([1]; 1 micro-M, Nil 40.8 (Table 16)): 52.5%
NK Function % Specific Lysis K562 ([1]; 5 micro-M, Nil 40.8 (Table 16)): 1.2%
NK Function % Specific Lysis K562 ([1]; 20 micro-M, Nil 40.8 (Table 16)): 0.6%
NK toxicity / effect on NK function, in words [1]: a very potent NK toxin

COC(=O)[C@H](Cc1ccccc1)NC(=O)[C@@H](N)C(C)C [Val-Phe-OMe] (H-Val-Phe-OMe)
inhibition at 250 µM [2, 4]: 75%
NK Toxicity (LD50) [1]: 24 micro-M
NK toxicity / effect on NK function, in words [1]: produced concentration-dependent ablation of NK function at concentrations comparable to those at which Leu-Leu-OMe was active; also recorded: among the most potent of the NK toxic dipeptide methyl esters

COC(=O)CNC(=O)[C@@H](N)CC(C)C [Leu-Gly-OMe] (H-Leu-Gly-OMe)
NK toxicity / effect on NK function, in words [1]: greatly reduced NK toxicity

COC(=O)[C@H](Cc1ccccc1)NC(=O)[C@@H](N)CC(=O)O [Asp-Phe-OMe, aspartyl phenylalanine methyl ester] (H-Asp-Phe-OMe)
inhibition at 250 µM [2, 4]: 8%
NK Toxicity (LD50) [1]: > 250 micro-M
NK toxicity / effect on NK function, in words [1]: no observed NK inhibitory effects
NK Function % Specific Cytotoxicity ([1]; preincubation 100 micromolar): 54.2%
NK Function % Specific Cytotoxicity ([1]; preincubation 250 micromolar): 45.7%
NK Function % Specific Cytotoxicity ([1]; preincubation 500 micromolar): 45.7%
NK Function % Specific Cytotoxicity ([1]; preincubation 1000 micromolar): 46.9%

COC(=O)[C@H](CC(C)C)NC(=O)[C@@H](N)CCCCN [Lys-Leu-OMe] (H-Lys-Leu-OMe)
NK toxicity / effect on NK function, in words [1]: no observed NK inhibitory effects

COC(=O)[C@H](CC(C)C)NC(=O)[C@H](CC(C)C)NC(=O)[C@H](CC(C)C)NC(=O)[C@@H](N)CC(C)C [LLLLOMe] (H-LLLL-OMe)
^51 Cr Release from RBC (human erythrocytes (RBC); 100 micro-M): 425 + 24
^51 Cr Release from RBC (human erythrocytes (RBC); 500 micro-M): 457 + 41

COC(=O)[C@H](CC(C)C)NC(=O)[C@@H](N)Cc1ccccc1 [Phe-Leu-OMe] (H-Phe-Leu-OMe)
NK toxicity / effect on NK function, in words [1]: produced concentration-dependent ablation of NK function at concentrations comparable to those at which Leu-Leu-OMe was active

COC(=O)[C@H](CC(C)C)NC(=O)[C@@H](N)CO [Ser-Leu-OMe] (H-Ser-Leu-OMe)
competitive inhibition of [3H]Leu-Leu-OMe uptake, in words [2]: excellent competitive inhibitors of [^3 H]Leu-Leu-OMe uptake
inhibition at 250 µM [2, 4]: 94%
NK Toxicity (LD50) [1]: > 250 micro-M
NK toxicity / effect on NK function, in words [1]: no observed NK inhibitory effects; also recorded: little or no toxicity for NK cells

NCC(=O)N[C@@H](Cc1ccccc1)C(N)=O [Gly-Phe-NH2] (H-Gly-Phe-NH2)
NK Function % Specific Lysis K562 [1, 3]: 43.9%
NK toxicity / effect on NK function, in words [1]: has no apparent NK toxic effects

CC(C)C[C@H](N)C(=O)N[C@@H](Cc1ccccc1)C(=O)O [Leu-Phe, L-leucyl L-phenylalanine, reference compound] (H-Leu-Phe-OH)
effect of unesterified dipeptides on NK cell survival or lytic activity [1]: had no effect on NK cell survival or lytic activity

CC[C@H](C)[C@H](N)C(=O)OC [Ile-OMe, reference compound]
prevention of Leu-OMe ablation of NK activity [1]: largely prevented
permanent effect on NK function [1]: neither chloroquine, NH4 Cl, nor Ile-OMe had any substantial permanent effect on NK function

COC(=O)[C@@H](NC(=O)[C@@H](N)Cc1ccccc1)C(C)C [Phe-Val-OMe] (H-Phe-Val-OMe)
NK toxicity / effect on NK function, in words [1]: markedly less active than Val-Phe-OMe

COC(=O)[C@H](CC(C)C)NC(=O)[C@H](CC(C)C)NC(=O)[C@@H](N)CC(C)C [Leu-Leu-Leu-OMe] (H-Leu-Leu-Leu-OMe)
competitive inhibition of [3H]Leu-Leu-OMe uptake, in words [2]: do not competitively inhibit PBL uptake of L-Leu-L-Leu-OMe
inhibition at 250 µM [2, 5]: 6%
concentration required for effect equivalent to Leu-Leu-OMe ([1]; MP-depleted lymphocytes (FIG. 4)): 5 fold
NK toxicity / effect on NK function, in words [1]: caused dose-dependent loss of NK function

CC(C)C[C@H](NC(=O)[C@@H](N)Cc1ccccc1)C(=O)O [Phe-Leu, L-phenylalanyl L-leucine, reference compound] (H-Phe-Leu-OH)
effect of unesterified dipeptides on NK cell survival or lytic activity [1]: had no effect on NK cell survival or lytic activity

CC(C)C[C@H](N)C(=O)O [Leucine, L-leucine, reference compound]
NK toxicity / effect on NK function, in words [1]: had no irreversible effect on NK function
